{"source": "patent US8633225B2", "about": "“Piperidinium compounds and cosmetic compositions containing them” (Beiersdorf AG, priority 2006, dated 2014)", "assay": "inhibiting or reducing perspiration (antihidrotic effect); statement only, no test described", "conditions": "qualitative statement", "data": [{"smiles": "CCC(C)C(C(=O)OC1CC[N+](C)(C)CC1)c1ccccc1.[Br-]", "note": "(stereo not shown) [4-{[2-(2-butyl)-2-phenylacetyl)oxy]}-1,1-dimethyl-piperidinium bromide]", "values": [{"measurement": "efficacy in inhibiting perspiration", "result": "very good efficacy in inhibiting perspiration"}]}]}
